Assay results as given in patent publication US6977262B2, “Dihydropyrazolopyridine compounds and pharmaceutical use thereof” (Mitsubishi Pharma Corporation, priority 2001, dated 2005).

Compound	melting point
CCCC1=C(C(=O)OCC)C(c2ccccc2Cl)c2cnn(C(=O)C=Cc3ccccc3)c2N1 (stereo not drawn) [Example 228, Ethyl 4-(2-chlorophenyl)-1-cinnamoyl-4,7-dihydro-6-propyl-1H-pyrazolo[3,4-b]pyridine-5-carboxylate]	131 to 134 °C
CCCC1=C(C(=O)OCC)C(c2ccccc2Cl)c2c(n[nH]c2C)N1 (stereo not drawn) [Example 230, Ethyl 4-(2-chlorophenyl)-4,7-dihydro-3-methyl-6-propyl-2H-pyrazolo[3,4-b]pyridine-5-carboxylate]	164 to 165 °C
CCCC1=C(C(=O)OCC)C(c2ccccc2Cl)c2cn(C)nc2N1 (stereo not drawn) [Example 231, Ethyl 4-(2-chlorophenyl)-4,7-dihydro-2-methyl-6-propyl-2H-pyrazolo[3,4-b]pyridine-5-carboxylate]	150 to 151 °C
CCCC1=C(C(=O)OCC)C(c2cccc(Cl)c2)c2c[nH]nc2N1 (stereo not drawn) [Example 234, Ethyl 4-(3-chlorophenyl)-4,7-dihydro-6-propyl-2H-pyrazolo[3,4-b]pyridine-5-carboxylate]	140 to 143 °C
CCCC1=C(C(=O)OCC)C(c2ccc(Cl)cc2)c2c[nH]nc2N1 (stereo not drawn) [Example 235, Ethyl 4-(4-chlorophenyl)-4,7-dihydro-6-propyl-2H-pyrazolo[3,4-b]pyridine-5-carboxylate]	159 to 161 °C
CCCC1=C(C(=O)OCC)C(c2[nH]cnc2C)c2c[nH]nc2N1 (stereo not drawn) [Example 236, Ethyl 4,7-dihydro-4-(4-methyl-1H-imidazol-5-yl)-6-propyl-2H-pyrazolo[3,4-b]pyridine-5-carboxylate]	219 to 220 °C
CCCC1=C(C(=O)OCC)C(c2nccn2C)c2c[nH]nc2N1 (stereo not drawn) [Example 237, Ethyl 4,7-dihydro-4-(1-methyl-1H-imidazol-2-yl)-6-propyl-2H-pyrazolo[3,4-b]pyridine-5-carboxylate]	209 °C
CCCC1=C(C(=O)OCC)C(c2cnc[nH]2)c2c[nH]nc2N1 (stereo not drawn) [Example 238, Ethyl 4,7-dihydro-4-(1H-imidazol-5-yl)-6-propyl-2H-pyrazolo[3,4-b]pyridine-5-carboxylate]	200 °C
CCCCC1=C(C(=O)OCC)C(c2cccc3nonc23)c2c[nH]nc2N1 (stereo not drawn) [Example 239, Ethyl 4-(2,1,3-benzoxadiazol-4-yl)-6-butyl-4,7-dihydro-2H-pyrazolo[3,4-b]pyridine-5-carboxylate]	213 °C
N#CC1=C(c2cccs2)Nc2n[nH]cc2C1c1ccccc1Cl (stereo not drawn) [Example 241, 4-(2-Chlorophenyl)-5-cyano-4,7-dihydro-6-(thiophen-2-yl)-2H-pyrazolo[3,4-b]pyridine]	174 °C
COc1ccccc1C1C(C#N)=C(c2cccs2)Nc2n[nH]cc21 (stereo not drawn) [Example 242, 5-Cyano-4,7-dihydro-4-(2-methoxyphenyl)-6-(thiophen-2-yl)-2H-pyrazolo[3,4-b]pyridine]	215 °C
CSc1ccccc1C1C(C#N)=C(c2cccs2)Nc2n[nH]cc21 (stereo not drawn) [Example 243, 5-Cyano-4,7-dihydro-4-(2-methylthiophenyl)-6-(thiophen-2-yl)-2H-pyrazolo[3,4-b]pyridine]	222 °C
N#CC1=C(c2cccs2)Nc2n[nH]cc2C1c1ccccc1[N+](=O)[O-] (stereo not drawn) [Example 244, 5-Cyano-4,7-dihydro-4-(2-nitrophenyl)-6-(thiophen-2-yl)-2H-pyrazolo[3,4-b]pyridine]	165 °C
N#CC1=C(c2cccs2)Nc2n[nH]cc2C1c1cccc2nsnc12 (stereo not drawn) [Example 245, 4-(2,1,3-Benzothiadiazol-4-yl)-5-cyano-4,7-dihydro-6-(thiophen-2-yl)-2H-pyrazolo[3,4-b]pyridine]	254 °C
N#CC1=C(c2cccs2)Nc2n[nH]cc2C1c1cccc2ccccc12 (stereo not drawn) [Example 246, 5-Cyano-4,7-dihydro-4-(naphthalen-1-yl)-6-(thiophen-2-yl)-2H-pyrazolo[3,4-b]pyridine]	214 °C
N#CC1=C(c2cccs2)Nc2n[nH]cc2C1c1cccc(Cl)c1Cl (stereo not drawn) [Example 247, 5-Cyano-4-(2,3-dichlorophenyl)-4,7-dihydro-6-(thiophen-2-yl)-2H-pyrazolo[3,4-b]pyridine]	232 °C
Cc1ccccc1C1C(C#N)=C(c2ccccc2)Nc2n[nH]cc21 (stereo not drawn) [Example 248, 5-Cyano-4,7-dihydro-4-(2-methylphenyl)-6-phenyl-2H-pyrazolo[3,4-b]pyridine]	246 °C
Cc1ccccc1C1C(C#N)=C(c2cccs2)Nc2n[nH]cc21 (stereo not drawn) [Example 249, 5-Cyano-4,7-dihydro-4-(2-methylphenyl)-6-(thiophen-2-yl)-2H-pyrazolo[3,4-b]pyridine]	276 °C
N#CC1=C(CO)Nc2n[nH]cc2C1c1ccccc1Cl (stereo not drawn) [Example 252, 4-(2-Chlorophenyl)-5-cyano-4,7-dihydro-6-hydroxymethyl-2H-pyrazolo[3,4-b]pyridine]	205 to 210 °C (dec.)
CCOC(=O)/C=C/C1=C(C#N)C(c2ccccc2Cl)c2c[nH]nc2N1 (stereo not drawn) [Example 253, 4-(2-Chlorophenyl)-5-cyano-4,7-dihydro-6-(trans-2-ethoxycarbonylethenyl)-2H-pyrazolo[3,4-b]pyridine]	240 to 243 °C (dec.)

Compound	melting point
CCOC(=O)CCC1=C(C#N)C(c2ccccc2Cl)c2c[nH]nc2N1 (stereo not drawn) [Example 254, 4-(2-Chlorophenyl)-5-cyano-6-(2-ethoxycarbonylethyl)-4,7-dihydro-2H-pyrazolo[3,4-b]pyridine]	172 to 174 °C
N#CC1=C(CO)Nc2n[nH]cc2C1c1cccc2nonc12 (stereo not drawn) [Example 257, 4-(2,1,3-Benzoxadiazol-4-yl)-5-cyano-4,7-dihydro-6-hydroxymethyl-2H-pyrazolo[3,4-b]pyridine]	215 to 220 °C (dec.)
CC(C)C1=C(C#N)C(c2cccc(C#N)c2Br)c2c[nH]nc2N1 (stereo not drawn) [Example 260, 4-(2-Bromo-3-cyanophenyl)-5-cyano-4,7-dihydro-6-isopropyl-2H-pyrazolo[3,4-b]pyridine]	> 250 °C
CC(C)C1=C(C#N)C(c2ccccc2[N+](=O)[O-])c2c[nH]nc2N1 (stereo not drawn) [Example 262, 5-Cyano-4,7-dihydro-6-isopropyl-4-(2-nitrophenyl)-2H-pyrazolo[3,4-b]pyridine]	224 °C
CC(C)C1=C(C#N)C(c2cccc(Cl)c2Cl)c2c[nH]nc2N1 (stereo not drawn) [Example 263, 5-Cyano-4-(2,3-dichlorophenyl)-4,7-dihydro-6-isopropyl-2H-pyrazolo[3,4-b]pyridine]	> 250 °C
CC(C)C1=C(C#N)C(c2cccc3nonc23)c2c[nH]nc2N1 (stereo not drawn) [Example 264, 4-(2,1,3-Benzoxadiazol-4-yl)-5-cyano-4,7-dihydro-6-isopropyl-2H-pyrazolo[3,4-b]pyridine]	222 to 223 °C (dec.)
COc1ccccc1C1C(C#N)=C(C(C)C)Nc2n[nH]cc21 (stereo not drawn) [Example 265, 5-Cyano-4,7-dihydro-6-isopropyl-4-(2-methoxyphenyl)-2H-pyrazolo[3,4-b]pyridine]	> 250 °C
N#CC1=C(C2CC2)Nc2n[nH]cc2C1c1ccccc1Cl (stereo not drawn) [Example 266, 4-(2-Chlorophenyl)-5-cyano-6-cyclopropyl-4,7-dihydro-2H-pyrazolo[3,4-b]pyridine]	> 250 °C
N#CC1=C(C2CC2)Nc2n[nH]cc2C1c1ccccc1Br (stereo not drawn) [Example 267, 4-(2-Bromophenyl)-5-cyano-6-cyclopropyl-4,7-dihydro-2H-pyrazolo[3,4-b]pyridine]	> 250 °C
N#CC1=C(C2CC2)Nc2n[nH]cc2C1c1cccc2nonc12 (stereo not drawn) [Example 269, 4-(2,1,3-Benzoxadiazol-4-yl)-5-cyano-6-cyclopropyl-4,7-dihydro-2H-pyrazolo[3,4-b]pyridine]	200 to 201 °C (dec.)
N#CC1=C(C2CC2)Nc2n[nH]cc2C1c1ccccc1[N+](=O)[O-] (stereo not drawn) [Example 272, 5-Cyano-6-cyclopropyl-4,7-dihydro-4-(2-nitrophenyl)-2H-pyrazolo[3,4-b]pyridine]	236 to 238 °C (dec.)
N#CC1=C(c2cccs2)Nc2n[nH]cc2C1c1cccc(C#N)c1Br (stereo not drawn) [Example 278, 4-(2-Bromo-3-cyanophenyl)-5-cyano-4,7-dihydro-6-(thiophen-2-yl)-2H-pyrazolo[3,4-b]pyridine]	> 280 °C
CCCC1=C(C#N)C(c2ccccc2Cl)c2cnn(C(=O)OC(C)(C)C)c2N1 (stereo not drawn) [Example 281, 1-tert-Butoxycarbonyl-4-(2-chlorophenyl)-5-cyano-4,7-dihydro-6-propyl-1 H-pyrazolo[3,4-b]pyridine]	98 to 102 °C
CCCC1=C(C#N)C(c2ccccc2Cl)c2cn(C(=O)OC(C)(C)C)nc2N1 (stereo not drawn) [Example 282, 2-tert-Butoxycarbonyl-4-(2-chlorophenyl)-5-cyano-4,7-dihydro-6-propyl-2H-pyrazolo[3,4-b]pyridine]	175 °C (dec.)
CCCC1=C(C#N)C(c2ccccc2Cl)c2cnn(C(=O)Nc3ccccc3)c2N1 (stereo not drawn) [Example 283, 4-(2-Chlorophenyl)-5-cyano-4,7-dihydro-1-phenylcarbamoyl-6-propyl-1 H-pyrazolo[3,4-b]pyridine]	138 to 140 °C
CCCC1=C(C#N)C(c2ccccc2Cl)c2cn(C(=O)Nc3ccccc3)nc2N1 (stereo not drawn) [Example 284, 4-(2-Chlorophenyl)-5-cyano-4,7-dihydro-2-phenylcarbamoyl-6-propyl-2H-pyrazolo[3,4-b]pyridine]	167 to 171 °C
CCCC1=C(C#N)C(c2cccc3nonc23)c2cn(C(=O)OC(C)(C)C)nc2N1 (stereo not drawn) [Example 288, 4-(2,1,3-Benzoxadiazol-4-yl)-2-tert-butoxycarbonyl-5-cyano-4,7-dihydro-6-propyl-2H-pyrazolo[3,4-b]pyridine]	168 to 170 °C
CCCC1=C(C#N)C(c2ccccc2Cl)c2c(n[nH]c2-c2ccc(OC)cc2)N1 (stereo not drawn) [Example 290, 4-(2-Chlorophenyl)-5-cyano-4,7-dihydro-3-(4-methoxyphenyl)-6-propyl-2H-pyrazolo[3,4-b]pyridine]	284 °C
N#CC1=C(c2ccc(Br)s2)Nc2n[nH]cc2C1c1cccc2nonc12 (stereo not drawn) [Example 291, 4-(2,1,3-Benzoxadiazol-4-yl)-6-(2-bromothiophen-5-yl)-5-cyano-4,7-dihydro-2H-pyrazolo[3,4-b]pyridine]	208 °C
